These molecules were tested on Osteoblasts (Calvarial cells) (assay: Cytotoxicity test (MTT)). Settings: 1 μM compound, 72 hours, in comparison with vehicle control.
`CNc1ccc([N+](=O)[O-])c(Nc2ccc(N3CCCC(C(N)=O)C3)c(F)c2)n1` (stereo not shown) [Compound 301, 2-{[3-fluoro-4-(3-carbamoylpiperidino)]phenylamino}-6-(methylamino)-3-nitropyridine] was tested, and the “Cell viability (%) Calvarial cell” value was 95%.
With `CC(C)Nc1ccc([N+](=O)[O-])c(Nc2ccc(N3CCCC(C(N)=O)C3)c(F)c2)n1` (stereo not shown) [Compound 302, 2-{[3-fluoro-4-(3-carbamoylpiperidino)]phenylamino}-6-(isopropylamino)-3-nitropyridine] the “Cell viability (%) Calvarial cell” value was 103%.
With `CC(C)CNc1ccc([N+](=O)[O-])c(Nc2ccc(N3CCCC(C(N)=O)C3)c(F)c2)n1` (stereo not shown) [Compound 303, 2-{[3-fluoro-4-(3-carbamoylpiperidino)]phenylamino}-6-(isobutylamino)-3-nitropyridine] the “Cell viability (%) Calvarial cell” value was 102%.
`CC(C)(C)Nc1ccc([N+](=O)[O-])c(Nc2ccc(N3CCCC(C(N)=O)C3)c(F)c2)n1` (stereo not shown) [Compound 304, 2-{[3-fluoro-4-(3-carbamoylpiperidino)]phenylamino}-6-(t-butylamino)-3-nitropyridine] was tested, and the “Cell viability (%) Calvarial cell” value was 103%.
For `NC(=O)C1CCCN(c2ccc(Nc3nc(N4CCC(O)CC4)ccc3[N+](=O)[O-])cc2F)C1` (stereo not shown) [Compound 305], the “Cell viability (%) Calvarial cell” value was 107%.
`NC(=O)C1CCCN(c2ccc(Nc3nc(N4CCNCC4)ccc3[N+](=O)[O-])cc2F)C1` (stereo not shown) [Compound 306, 2-{[3-fluoro-4-(3-carbamoylpiperidino)]phenylamino}-6-(piperazin-1-yl)-3-nitropyridine] was tested, and the “Cell viability (%) Calvarial cell” value was 122%.
`CN1CCN(c2ccc([N+](=O)[O-])c(Nc3ccc(N4CCCC(C(N)=O)C4)c(F)c3)n2)CC1` (stereo not shown) [Compound 307, 2-{[3-fluoro-4-(3-carbamoylpiperidino)]phenylamino}-6-(4-methylpiperazin-1-yl)-3-nitropyridine] was tested, and the “Cell viability (%) Calvarial cell” value was 131%.
`NC(=O)C1CCCN(c2ccc(Nc3nc(N4CCOCC4)ccc3[N+](=O)[O-])cc2F)C1` (stereo not shown) [Compound 308, 2-{[3-fluoro-4-(3-carbamoylpiperidino)]phenylamino}-6-morpholino-3-nitropyridine] was tested, and the “Cell viability (%) Calvarial cell” value was 109%.
With `NC(=O)C1CCCN(c2ccc(Nc3nc(N4CCC(N)CC4)ccc3[N+](=O)[O-])cc2F)C1` (stereo not shown) [Compound 309, 2-{[3-fluoro-4-(3-carbamoylpiperidino)]phenylamino}-6-(4-aminopiperidino)-3-nitropyridine] the “Cell viability (%) Calvarial cell” value was 110%.
For `NC(=O)C1CCCN(c2ccc(Nc3nc(NCc4cccnc4)ccc3[N+](=O)[O-])cc2F)C1` (stereo not shown) [Compound 310, 2-{[3-fluoro-4-(3-carbamoylpiperidino)]phenylamino}-6-[(3-pyridyl)methylamino]-3-nitropyridine], the “Cell viability (%) Calvarial cell” value was 97%.
In the case of `NC(=O)C1CCCN(c2ccc(Nc3nc(NCc4ccncc4)ccc3[N+](=O)[O-])cc2F)C1` (stereo not shown) [Compound 311, 2-{[3-fluoro-4-(3-carbamoylpiperidino)]phenylamino}-6-[(4-pyridyl)methylamino]-3-nitropyridine], the “Cell viability (%) Calvarial cell” value is reported as 98%.
With `NC(=O)C1CCCN(c2ccc(Nc3nc(NCCCn4ccnc4)ccc3[N+](=O)[O-])cc2F)C1` (stereo not shown) [Compound 312, 2-{[3-fluoro-4-(3-carbamoylpiperidino)]phenylamino}-6-[(3-imidazol-1-yl)propylamino]-3-nitropyridine] the “Cell viability (%) Calvarial cell” value was 98%.
In the case of `NC(=O)C1CCCN(c2ccc(Nc3nc(NCCN4CCOCC4)ccc3[N+](=O)[O-])cc2F)C1` (stereo not shown) [Compound 313, 2-{[3-fluoro-4-(3-carbamoylpiperidino)]phenylamino}-6-[2-(morpholin-1-yl)ethylamino]-3-nitropyridine], the “Cell viability (%) Calvarial cell” value is reported as 106%.
With `NC(=O)C1CCCN(c2ccc(Nc3nc(NCCCN4CCOCC4)ccc3[N+](=O)[O-])cc2F)C1` (stereo not shown) [Compound 314, 2-{[3-fluoro-4-(3-carbamoylpiperidino)]phenylamino}-6-[(3-morpholin-1-yl)propylamino]-3-nitropyridine] the “Cell viability (%) Calvarial cell” value was 103%.
`CCN(CC)c1ccc([N+](=O)[O-])c(Nc2ccc(N3CCCC(C(N)=O)C3)c(F)c2)n1` (stereo not shown) [Compound 315, 2-{[3-fluoro-4-(3-carbamoylpiperidino)]phenylamino}-6-(diethylamino)-3-nitropyridine] was tested, and the “Cell viability (%) Calvarial cell” value was 104%.
In the case of `CNc1ccc([N+](=O)[O-])c(Nc2ccc(N3CCC(C(=O)O)CC3)c(F)c2)n1` [Compound 316, 2-{[3-fluoro-4-(4-carboxylicpiperidino)]phenylamino}-6-(methylamino)-3-nitropyridine], the “Cell viability (%) Calvarial cell” value is reported as 95%.
With `CC(C)Nc1ccc([N+](=O)[O-])c(Nc2ccc(N3CCC(C(=O)O)CC3)c(F)c2)n1` [Compound 317, 2-{[3-fluoro-4-(4-carboxylicpiperidino)]phenylamino}-6-(isopropylamino)-3-nitropyridine] the “Cell viability (%) Calvarial cell” value was 99%.
With `CC(C)CNc1ccc([N+](=O)[O-])c(Nc2ccc(N3CCC(C(=O)O)CC3)c(F)c2)n1` [Compound 318, 2-{[3-fluoro-4-(4-carboxylicpiperidino)]phenylamino}-6-(isobutylamino)-3-nitropyridine] the “Cell viability (%) Calvarial cell” value was 103%.
For `O=C(O)C1CCN(c2ccc(Nc3nc(N4CCC(O)CC4)ccc3[N+](=O)[O-])cc2F)CC1` [Compound 319, 2-{[3-fluoro-4-(4-carboxylicpiperidino)]phenylamino}-6-(4-hydroxypiperidino)-3-nitropyridine], the “Cell viability (%) Calvarial cell” value was 112%.
`CN1CCN(c2ccc([N+](=O)[O-])c(Nc3ccc(N4CCC(C(=O)O)CC4)c(F)c3)n2)CC1` [Compound 320, 2-{[3-fluoro-4-(4-carboxylicpiperidino)]phenylamino}-6-(4-methylpiperazin-1-yl)-3-nitropyridine] was tested, and the “Cell viability (%) Calvarial cell” value was 101%.
`O=C(O)C1CCN(c2ccc(Nc3nc(NCc4cccnc4)ccc3[N+](=O)[O-])cc2F)CC1` [Compound 321, 2-{[3-fluoro-4-(4-carboxylicpiperidino)]phenylamino}-6-[(3-pyridyl)methylamino]-3-nitropyridine] was tested, and the “Cell viability (%) Calvarial cell” value was 101%.
`O=C(O)C1CCN(c2ccc(Nc3nc(NCc4ccncc4)ccc3[N+](=O)[O-])cc2F)CC1` [Compound 322, 2-{[3-fluoro-4-(4-carboxylicpiperidino)]phenylamino}-6-[(4-pyridyl)methylamino]-3-nitropyridine] was tested, and the “Cell viability (%) Calvarial cell” value was 106%.
`O=C(O)C1CCN(c2ccc(Nc3nc(NCCCn4ccnc4)ccc3[N+](=O)[O-])cc2F)CC1` [Compound 323, 2-{[3-fluoro-4-(4-carboxylicpiperidino)]phenylamino}-6-[(3-imidazol-1-yl)propylamino]-3-nitropyridine] was tested, and the “Cell viability (%) Calvarial cell” value was 105%.
`O=C(O)C1CCN(c2ccc(Nc3nc(NCCN4CCOCC4)ccc3[N+](=O)[O-])cc2F)CC1` [Compound 324, 2-{[3-fluoro-4-(4-carboxylicpiperidino)]phenylamino}-6-[2-(morpholin-1-yl)ethylamino]-3-nitropyridine] was tested, and the “Cell viability (%) Calvarial cell” value was 82%.
With `O=C(O)C1CCN(c2ccc(Nc3nc(NCCCN4CCOCC4)ccc3[N+](=O)[O-])cc2F)CC1` [Compound 325, 2-{[3-fluoro-4-(4-carboxylicpiperidino)]phenylamino}-6-[(3-morpholin-1-yl)propylamino]-3-nitropyridine] the “Cell viability (%) Calvarial cell” value was 106%.

Reference: patent US20110306606A1, “NOVEL 2,6-SUBSTITUTED-3-NITROPYRIDINE DERIVATIVE, METHOD FOR PREPARING SAME, AND PHARMACEUTICAL COMPOSITION INCLUDING SAME” (priority 2008, published 2011)
